# Measured values published in US10533010B2, “Substituted indole Mcl-1 inhibitors” (Vanderbilt University, priority 2014, dated 2020).
# pKi: −log10 of the molar value.
# Molecular target: recombinant Mcl-1 (residues 172-327) (Homo sapiens (Human), UniProt Q07820)
# Assay: Fluorescence polarization anisotropy competition assay (FITC-Bak or FITC-Bim BH3 peptide) with Mcl-1
# Assay type: binding
# Details: not given
# Chain of recombinant Mcl-1 (residues 172-327) (Q07820 172-327): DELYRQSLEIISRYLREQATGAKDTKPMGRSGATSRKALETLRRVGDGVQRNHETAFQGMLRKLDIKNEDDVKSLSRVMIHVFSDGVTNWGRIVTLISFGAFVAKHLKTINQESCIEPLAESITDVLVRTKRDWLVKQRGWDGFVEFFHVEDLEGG
row,SMILES,pKi
1,"COC(=O)CNC(=O)c1[nH]c2ccccc2c1CCCOc1cc(C)c(Cl)c(C)c1 [I-2, methyl (3-(3-(4-chloro-3,5-dimethylphenoxy)propyl)-1H-indole-2-carbonyl)glycinate]",5.00 to 6.00
2,"Cc1cc(OCCCc2c(C(=O)NCC(=O)O)[nH]c3ccccc23)cc(C)c1Cl [I-3, (3-(3-(4-chloro-3,5-dimethylphenoxy)propyl)-1H-indole-2-carbonyl)glycine]",6.00 to 6.30

# Same assay, conditions: Table 2; Ki bins given in nM; FITC-Bak or FITC-Bim peptide competition; Ki converted from IC50; read-out: Ki for Inhibition of Mcl-1
row,SMILES,Ki [nM]
1,"Cc1cc(OCCCc2c(C(=O)NCC(=O)NS(=O)(=O)c3ccccc3)[nH]c3ccccc23)cc(C)c1Cl [I-5, 3-(3-(4-chloro-3,5-dimethylphenoxy)propyl)-N-(2-oxo-2-(phenylsulfonamido)ethyl)-1H-indole-2-carboxamide]",101 to 299
2,"Cc1cc(OCCCc2c(C(=O)NCC(=O)NS(=O)(=O)c3cccnc3)[nH]c3ccccc23)cc(C)c1Cl [I-6, 3-(3-(4-chloro-3,5-dimethylphenoxy)propyl)-N-(2-oxo-2-(pyridine-3-sulfonamido)ethyl)-1H-indole-2-carboxamide]",301 to 500
3,"Cc1cc(OCCCc2c(C(=O)NCC(=O)NS(=O)(=O)c3ccc4ccccc4c3)[nH]c3ccccc23)cc(C)c1Cl [I-7, 3-(3-(4-chloro-3,5-dimethylphenoxy)propyl)-N-(2-(naphthalene-2-sulfonamido)-2-oxoethyl)-1H-indole-2-carboxamide]",101 to 299
4,"Cc1cc(OCCCc2c(C(=O)NCC(=O)NS(=O)(=O)c3ccc(Oc4ccccc4)cc3)[nH]c3ccccc23)cc(C)c1Cl [I-8, 3-(3-(4-chloro-3,5-dimethylphenoxy)propyl)-N-(2-oxo-2-((4-phenoxyphenyl)sulfonamido)ethyl)-1H-indole-2-carboxamide]",101 to 299
5,"Cc1cc(OCCCc2c(C(=O)NCC(=O)NS(=O)(=O)C3CC3)[nH]c3ccccc23)cc(C)c1Cl [I-9, 3-(3-(4-chloro-3,5-dimethylphenoxy)propyl)-N-(2-(cyclopropanesulfonamido)-2-oxoethyl)-1H-indole-2-carboxamide]",501 to 999
6,"Cc1cc(OCCCc2c(C(=O)NCCC(=O)NS(=O)(=O)C3CC3)[nH]c3ccccc23)cc(C)c1Cl [I-13, 3-(3-(4-chloro-3,5-dimethylphenoxy)propyl)-N-(3-(cyclopropanesulfonamido)-3-oxopropyl)-1H-indole-2-carboxamide]",301 to 500
7,"Cc1cc(OCCCc2c(C(=O)NCCC(=O)NS(=O)(=O)c3ccccc3)[nH]c3ccccc23)cc(C)c1Cl [I-14, 3-(3-(4-chloro-3,5-dimethylphenoxy)propyl)-N-(3-oxo-3-(phenylsulfonamido)propyl)-1H-indole-2-carboxamide]",51 to 100
8,"Cc1cc(OCCCc2c(C(=O)NCCC(=O)NS(=O)(=O)c3cccnc3)[nH]c3ccccc23)cc(C)c1Cl [I-15, 3-(3-(4-chloro-3,5-dimethylphenoxy)propyl)-N-(3-oxo-3-(pyridine-3-sulfonamido)propyl)-1H-indole-2-carboxamide]",101 to 299
9,"Cc1cc(OCCCc2c(C(=O)NCCC(=O)NS(=O)(=O)c3ccc4ccccc4c3)[nH]c3ccccc23)cc(C)c1Cl [I-16, 3-(3-(4-chloro-3,5-dimethylphenoxy)propyl)-N-(3-(naphthalene-2-sulfonamido)-3-oxopropyl)-1H-indole-2-carboxamide]",101 to 299
10,"Cc1cc(OCCCc2c(C(=O)NCCC(=O)NS(=O)(=O)c3ccc(Oc4ccccc4)cc3)[nH]c3ccccc23)cc(C)c1Cl [I-17, 3-(3-(4-chloro-3,5-dimethylphenoxy)propyl)-N-(3-oxo-3-((4-phenoxyphenyl)sulfonamido)propyl)-1H-indole-2-carboxamide]",101 to 299
11,"Cc1cc(OCCCc2c(C(=O)NCCC(=O)NS(=O)(=O)c3ccccc3C#N)[nH]c3ccccc23)cc(C)c1Cl [I-18, 3-(3-(4-chloro-3,5-dimethylphenoxy)propyl)-N-(3-((2-cyanophenyl)sulfonamido)-3-oxopropyl)-1H-indole-2-carboxamide]",301 to 500
12,"Cc1cc(OCCCc2c(C(=O)NCCC(=O)NS(=O)(=O)c3cccc(C#N)c3)[nH]c3ccccc23)cc(C)c1Cl [I-19, 3-(3-(4-chloro-3,5-dimethylphenoxy)propyl)-N-(3-((3-cyanophenyl)sulfonamido)-3-oxopropyl)-1H-indole-2-carboxamide]",101 to 299
13,"Cc1cc(OCCCc2c(C(=O)NCCC(=O)NS(=O)(=O)c3ccccc3[N+](=O)[O-])[nH]c3ccccc23)cc(C)c1Cl [I-20, 3-(3-(4-chloro-3,5-dimethylphenoxy)propyl)-N-(3-((2-nitrophenyl)sulfonamido)-3-oxopropyl)-1H-indole-2-carboxamide]",101 to 299
14,"Cc1cc(OCCCc2c(C(=O)NCCC(=O)NS(=O)(=O)c3cccc([N+](=O)[O-])c3)[nH]c3ccccc23)cc(C)c1Cl [I-21, 3-(3-(4-chloro-3,5-dimethylphenoxy)propyl)-N-(3-((3-nitrophenyl)sulfonamido)-3-oxopropyl)-1H-indole-2-carboxamide]",101 to 299
15,"Cc1cc(OCCCc2c(C(=O)NCCC(=O)NS(=O)(=O)c3ccc([N+](=O)[O-])cc3)[nH]c3ccccc23)cc(C)c1Cl [I-22, 3-(3-(4-chloro-3,5-dimethylphenoxy)propyl)-N-(3-((4-nitrophenyl)sulfonamido)-3-oxopropyl)-1H-indole-2-carboxamide]",101 to 299
16,"Cc1cc(OCCCc2c(C(=O)NCCC(=O)O)[nH]c3c(-c4c(C)n[nH]c4C)cccc23)cc(C)c1Cl [I-23, 3-(3-(3-(4-chloro-3,5-dimethylphenoxy)propyl)-7-(3,5-dimethyl-1H-pyrazol-4-yl)-1H-indole-2-carboxamido)propanoic acid]",< 50
17,"Cc1cc(OCCCc2c(C(=O)NCCC(=O)NS(=O)(=O)c3ccc([N+](=O)[O-])cc3)[nH]c3c(-c4c(C)n[nH]c4C)cccc23)cc(C)c1Cl [I-24, 3-(3-(4-chloro-3,5-dimethylphenoxy)propyl)-7-(3,5-dimethyl-1H-pyrazol-4-yl)-N-(3-((4-nitrophenyl)sulfonamido)-3-oxopropyl)-1H-indole-2-carboxamide]",101 to 299
18,"COC(=O)c1cccc(CNC(=O)c2[nH]c3c(-c4c(C)n[nH]c4C)cccc3c2CCCOc2cc(C)c(Cl)c(C)c2)c1 [I-25, methyl 3-((3-(3-(4-chloro-3,5-dimethylphenoxy)propyl)-7-(3,5-dimethyl-1H-pyrazol-4-yl)-1H-indole-2-carboxamido)methyl)benzoate]",301 to 500
19,"Cc1cc(OCCCc2c(C(=O)NCc3cccc(C(=O)O)c3)[nH]c3c(-c4c(C)n[nH]c4C)cccc23)cc(C)c1Cl [I-25a, 3-((3-(3-(4-chloro-3,5-dimethylphenoxy)propyl)-7-(3,5-dimethyl-1H-pyrazol-4-yl)-1H-indole-2-carboxamido)methyl)benzoic acid]",< 50
20,"Cc1cc(OCCCc2c(C(=O)NCc3cccc(C(=O)NS(=O)(=O)c4ccccc4C#N)c3)[nH]c3c(-c4c(C)n[nH]c4C)cccc23)cc(C)c1Cl [I-26, 3-(3-(4-chloro-3,5-dimethylphenoxy)propyl)-N-(3-(((2-cyanophenyl)sulfonyl)carbamoyl)benzyl)-7-(3,5-dimethyl-1H-pyrazol-4-yl)-1H-indole-2-carboxamide]",< 50
21,"Cc1cc(OCCCc2c(C(=O)NCc3cccc(C(=O)NS(=O)(=O)c4ccc([N+](=O)[O-])cc4)c3)[nH]c3c(-c4c(C)n[nH]c4C)cccc23)cc(C)c1Cl [I-27, 3-(3-(4-chloro-3,5-dimethylphenoxy)propyl)-7-(3,5-dimethyl-1H-pyrazol-4-yl)-N-(3-(((4-nitrophenyl)sulfonyl)carbamoyl)benzyl)-1H-indole-2-carboxamide]",< 50
22,"Cc1cc(OCCCc2c(C(=O)NCc3cccc(C(=O)NS(=O)(=O)c4cccc(C#N)c4)c3)[nH]c3c(-c4c(C)nn(C)c4C)cccc23)cc(C)c1Cl [I-30, 3-(3-(4-chloro-3,5-dimethylphenoxy)propyl)-N-(3-(((3-cyanophenyl)sulfonyl)carbamoyl)benzyl)-7-(1,3,5-trimethyl-1H-pyrazol-4-yl)-1H-indole-2-carboxamide]",< 50
23,"Cc1cc(OCCCc2c(C(=O)NCc3cccc(C(=O)O)c3)n(C)c3c(-c4c(C)nn(C)c4C)cccc23)cc(C)c1Cl [I-33, 3-((3-(3-(4-chloro-3,5-dimethylphenoxy)propyl)-1-methyl-7-(1,3,5-trimethyl-1H-pyrazol-4-yl)-1H-indole-2-carboxamido)methyl)benzoic acid]",51 to 100
24,"Cc1cc(OCCCc2c(C(=O)NCc3cccc(C(=O)O)c3)[nH]c3c(-c4c(CN5CCCC5)nn(C)c4C)cccc23)cc(C)c1Cl [I-34, 3-((3-(3-(4-chloro-3,5-dimethylphenoxy)propyl)-7-(1,5-dimethyl-3-(pyrrolidin-1-ylmethyl)-1H-pyrazol-4-yl)-1H-indole-2-carboxamido)methyl)benzoic acid]",< 50
25,"Cc1cc(OCCCc2c(C(=O)NCc3cccc(C(=O)NS(=O)(=O)c4ccccc4C#N)c3)[nH]c3c(-c4c(CN5CCCC5)nn(C)c4C)cccc23)cc(C)c1Cl [I-35, 3-(3-(4-chloro-3,5-dimethylphenoxy)propyl)-N-(3-(((2-cyanophenyl)sulfonyl)carbamoyl)benzyl)-7-(1,5-dimethyl-3-(pyrrolidin-1-ylmethyl)-1H-pyrazol-4-yl)-1H-indole-2-carboxamide]",< 50
26,"Cc1cc(OCCCc2c(C(=O)Nc3cccc(C(=O)O)c3)[nH]c3c(-c4cccnc4C)cccc23)cc(C)c1Cl [I-36, 3-(3-(3-(4-chloro-3,5-dimethylphenoxy)propyl)-7-(2-methylpyridin-3-yl)-1H-indole-2-carboxamido)benzoic acid]",< 50
27,"Cc1cc(OCCCc2c(C(=O)Nc3ccc(C(=O)O)cc3)[nH]c3c(-c4cccnc4C)cccc23)cc(C)c1Cl [I-37, 4-(3-(3-(4-chloro-3,5-dimethylphenoxy)propyl)-7-(2-methylpyridin-3-yl)-1H-indole-2-carboxamido)benzoic acid]",< 50

# Same assay, conditions: Table 2; Ki bins given in μM; FITC-Bak or FITC-Bim peptide competition; Ki converted from IC50; read-out: Ki for Inhibition of Mcl-1
row,SMILES,Ki [nM]
1,"CCOC(=O)CCNC(=O)c1[nH]c2ccccc2c1CCCOc1cc(C)c(Cl)c(C)c1 [I-10, ethyl 3-(3-(3-(4-chloro-3,5-dimethylphenoxy)propyl)-1H-indole-2-carboxamido)propanoate]",10000 to 50000
